This passage reports IC50 and solubility in methanol results from US11104631B1, “Isopentenyl chalcone compound and preparation method thereof” (SOUTH CHINA BOTANICAL GARDEN, CHINESE ACADEMY OF SCIENCES, priority 2018, dated 2021).

As a reminder, the IC50 is the concentration at which inhibition is half-maximal.

Series [1] in a line: DPPH radical scavenging assay. Type of series: biochemical. The note with it: 0.2 mM DPPH in ethanol, dark, room temperature, 30 minutes, absorbance at 517 nm; read-out: IC50 value against DPPH radicals. As to the method:
DPPH is a stable free radical. When a free radical scavenger is present, light absorption of DPPH will be reduced when the single electron is scavenged, which allows to evaluate free radical scavenging ability of the substance and accordingly determine antioxidant ability thereof. The DPPH radical scavenging ability of the compound 2,2′,4,4′-tetrahydroxy-3′-(2″,3″-dihydroxy-3″-methylbutyl)chalcone was measured through the DPPH radical scavenging assay, so as to evaluate the antioxidant ability of the compound. The assay comprised the following steps: 1,1-Diphenyl-2-picrylhydrazyl (DPPH) was dissolved in absolute ethanol to obtain a solution with a concentration of 0.2 mM. The compound 2,2′,4,4′-tetrahydroxy-3′-(2″,3″-dihydroxy-3″-methylbutyl)chalcone was dissolved in absolute ethanol. 80 μL of the ethanol solution of 2,2′,4,4′-tetrahydroxy-3′-(2″,3″-dihydroxy-3″-methylbutyl)chalcone and 160 μL of the 0.2 mM DPPH ethanol solution were mixed and the mixture was placed in dark at room temperature for 30 minutes. Then, light absorbance at 517 nm was measured using a microplate reader (SpectraMax 190, Molecular Devices, USA), and Vc was employed as a positive control.
For orientation: Loss of DPPH colour is used to gauge radical scavenging.

The next series can be described thus: Solubility in methanol. Type of series: physicochemical.

In the case of `O=C1O[C@H]([C@@H](O)CO)C(O)=C1O` [Vc, vitamin C, reference compound], the IC50 in series [1] is 100 µM.
On to `CC(C)(O)C(O)Cc1c(O)ccc(C(=O)/C=C/c2ccc(O)cc2O)c1O` (stereo not drawn) [compound 1, 2,2′,4,4′-tetrahydroxy-3′-(2″,3″-dihydroxy-3″-methylbutyl)chalcone], for which the IC50 in series [1] came to 27.6 µM. Also, in “Solubility in methanol”, the solubility in methanol entry is listed as “easily soluble in methanol”.
